# According to patent publication US20250197374A1, “WEE1 DEGRADING COMPOUNDS AND USES THEREOF” (BRISTOL-MYERS SQUIBB COMPANY, priority 2023, published 2025):
# Assays:
# Assay type in all cases: cell-based
# WEE1 = biological target: T1, WEE1 (Homo sapiens, UniProt P30291+Q96SW2); assay: WEE1-ePL degradation assay (293T-LentiX, InCELL Hunter luminescence, 4 hr); conditions: for 293T-LentiX WEE1-ePL Degradation 4 hr YMin (%): lower limit of fit, % of DMSO control signal remaining; for DC50: LentiX-HEK293T cells expressing WEE1-ePL, 4 hr incubation, read-out: 293T-LentiX WEE1-ePL Degradation 4 hr EC50
# T1 construct: C-terminal ePL-tagged (DiscoverX, Fremont, CA) full-length WEE1 expression construct; expressed in transfected cells; host or cells: LentiX-HEK293T (Invitrogen), lentivirally transduced; the cells also over-express GSPT1-GN
# Outline: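 LentiX-HEK293T cells expressing C-terminally ePL-tagged full-length WEE1 plus non-degradable GSPT1-GN (G575N, N-terminal 158 aa truncated). Treated 4 h at 37 °C with a 10-point, 3-fold series from 1 or 10 µM, then read by InCELL Hunter luminescence. EC50 from four-parameter logistic fit, Ymax set by DMSO control.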
# MKN45 cells = assay: MKN45 cell proliferation assay (Cell-Titer-Glo, 120 hr); conditions: for EC50: Homo sapiens, MKN-45, 120 h, read-out: MKN45 Cell Prolif. 120 hr EC50; for MKN45 Cell Prolif. 120 hr YMin (%): minimal percent of DMSO control observed
# Outline: (§1)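 MKN45 (400/well) and MDA-MB-231 (800/well) cells in RPMI with 10% FBS were exposed to 10-point half-log doses from 1 or 10 uM (0.1% DMSO) for 120 h at 37 °C. Viability was read by CellTiter-Glo luminescence. EC50 came from blank-subtracted, %DMSO four-parameter fits, with Ymin-obs as the lowest %DMSO observed.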
# MDA-MB-231 cells = assay: MDA-MB-231 cell proliferation assay (Cell-Titer-Glo, 120 hr); conditions: for EC50: Homo sapiens, MDA-MB-231, 120 h, read-out: MDA-MB 231 Cell Prolif. 120 hr EC50; for MDA-MB 231 Cell Prolif. 120 hr YMin (%): minimal percent of DMSO control observed
# Outline: as §1
# T1 sequence (P30291 whole entry): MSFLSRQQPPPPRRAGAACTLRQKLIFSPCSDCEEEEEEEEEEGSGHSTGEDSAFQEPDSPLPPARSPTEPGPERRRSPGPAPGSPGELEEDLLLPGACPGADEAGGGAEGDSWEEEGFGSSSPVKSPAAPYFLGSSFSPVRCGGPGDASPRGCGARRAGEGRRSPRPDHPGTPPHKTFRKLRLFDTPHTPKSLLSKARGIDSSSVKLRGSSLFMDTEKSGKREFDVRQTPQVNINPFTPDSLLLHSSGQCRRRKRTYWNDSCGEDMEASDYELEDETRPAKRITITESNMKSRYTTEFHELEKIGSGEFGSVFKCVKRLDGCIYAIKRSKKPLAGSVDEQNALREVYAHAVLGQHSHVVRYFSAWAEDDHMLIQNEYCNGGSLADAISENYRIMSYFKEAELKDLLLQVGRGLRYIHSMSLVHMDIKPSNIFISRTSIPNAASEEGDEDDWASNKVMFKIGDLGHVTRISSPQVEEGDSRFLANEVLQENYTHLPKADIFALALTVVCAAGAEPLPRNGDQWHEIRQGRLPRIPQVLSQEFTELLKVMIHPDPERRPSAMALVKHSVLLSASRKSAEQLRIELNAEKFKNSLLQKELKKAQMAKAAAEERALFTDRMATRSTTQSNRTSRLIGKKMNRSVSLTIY
# T1 sequence (Q96SW2 whole entry): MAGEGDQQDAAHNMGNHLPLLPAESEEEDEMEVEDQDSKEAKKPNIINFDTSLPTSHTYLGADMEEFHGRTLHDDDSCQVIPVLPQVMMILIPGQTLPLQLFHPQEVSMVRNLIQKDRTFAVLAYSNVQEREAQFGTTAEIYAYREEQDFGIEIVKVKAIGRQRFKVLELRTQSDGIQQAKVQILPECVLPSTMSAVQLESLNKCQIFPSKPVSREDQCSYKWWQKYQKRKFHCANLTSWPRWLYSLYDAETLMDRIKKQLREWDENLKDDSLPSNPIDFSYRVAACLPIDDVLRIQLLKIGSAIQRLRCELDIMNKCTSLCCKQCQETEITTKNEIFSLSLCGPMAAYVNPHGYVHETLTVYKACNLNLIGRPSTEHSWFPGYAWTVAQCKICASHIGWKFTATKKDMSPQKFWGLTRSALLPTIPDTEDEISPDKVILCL
# T1 sequence (Q16531 whole entry partner): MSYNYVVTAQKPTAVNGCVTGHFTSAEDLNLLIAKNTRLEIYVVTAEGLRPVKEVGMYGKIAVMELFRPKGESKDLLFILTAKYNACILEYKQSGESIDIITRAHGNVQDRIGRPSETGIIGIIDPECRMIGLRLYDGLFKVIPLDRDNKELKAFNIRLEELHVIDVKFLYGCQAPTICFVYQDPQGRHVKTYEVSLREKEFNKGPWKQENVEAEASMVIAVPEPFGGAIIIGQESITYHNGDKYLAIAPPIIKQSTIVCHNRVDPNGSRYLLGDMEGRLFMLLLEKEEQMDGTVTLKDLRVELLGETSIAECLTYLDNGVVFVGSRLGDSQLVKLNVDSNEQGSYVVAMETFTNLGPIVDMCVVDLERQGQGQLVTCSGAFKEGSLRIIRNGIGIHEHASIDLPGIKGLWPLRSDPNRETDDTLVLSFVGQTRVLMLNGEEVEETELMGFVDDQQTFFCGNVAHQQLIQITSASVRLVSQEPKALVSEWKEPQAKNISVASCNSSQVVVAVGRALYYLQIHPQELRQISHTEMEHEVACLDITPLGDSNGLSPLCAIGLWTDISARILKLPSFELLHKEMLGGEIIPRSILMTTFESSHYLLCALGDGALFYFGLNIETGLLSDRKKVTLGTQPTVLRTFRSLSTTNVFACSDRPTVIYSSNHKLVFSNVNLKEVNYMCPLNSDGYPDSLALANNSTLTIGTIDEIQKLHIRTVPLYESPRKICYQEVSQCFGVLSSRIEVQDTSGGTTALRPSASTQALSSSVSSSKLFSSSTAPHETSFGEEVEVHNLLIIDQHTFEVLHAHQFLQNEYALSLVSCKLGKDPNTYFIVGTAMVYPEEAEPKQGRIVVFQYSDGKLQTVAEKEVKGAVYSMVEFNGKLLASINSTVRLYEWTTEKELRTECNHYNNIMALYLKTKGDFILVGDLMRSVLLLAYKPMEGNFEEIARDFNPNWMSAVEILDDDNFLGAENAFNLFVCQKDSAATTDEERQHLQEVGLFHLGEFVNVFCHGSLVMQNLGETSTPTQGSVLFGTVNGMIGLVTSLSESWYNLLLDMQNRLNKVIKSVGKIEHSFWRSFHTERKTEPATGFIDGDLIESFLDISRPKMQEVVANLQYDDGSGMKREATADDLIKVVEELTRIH
Structure (SMILES),293T-LentiX WEE1-ePL Degradation 4 hr YMin (%) (WEE1),EC50 (MKN45 cells) [nM],EC50 (MDA-MB-231 cells) [nM],DC50 (WEE1) [nM],MKN45 Cell Prolif. 120 hr YMin (%) (MKN45 cells),MDA-MB 231 Cell Prolif. 120 hr YMin (%) (MDA-MB-231 cells)
"COC[C@H]1CN(Cc2cc(F)c3nc(C4CCOCC4)ccc3c2)C[C@H]1Oc1ccc2c(c1)CN([C@H]1CCC(=O)NC1=O)C2=O [Example 83, (3S)-3-(5-{[(3S,4R)-1-{[8-fluoro-2-(oxan-4-yl)quinolin-6-yl]methyl}-4-(methoxymethyl)pyrrolidin-3-yl]oxy}-1-oxo-2,3-dihydro-1H-isoindol-2-yl)piperidine-2,6-dione]",81.6,109,1120,,94.8,87.9
"COC[C@@H]1CN(Cc2cc(F)c3nc(N4CCN(C(C)=O)C5(CC5)C4)ncc3c2)C[C@H]1Oc1ccc2c(c1)CN([C@H]1CCC(=O)NC1=O)C2=O [Example 85, (3S)-3-(5-{[(3S,4S)-1-[(2-{4-acetyl-4,7-diazaspiro[2.5]octan-7-yl}-8-fluoroquinazolin-6-yl)methyl]-4-(methoxymethyl)pyrrolidin-3-yl]oxy}-1-oxo-2,3-dihydro-1H-isoindol-2-yl)piperidine-2,6-dione]",27.9,1,22,1,11.1,16.6
"COC[C@@H]1CN(Cc2cc3ccc(N4CCN(C(C)=O)C5(CC5)C4)cc3cn2)C[C@H]1Oc1ccc2c(c1)CN([C@H]1CCC(=O)NC1=O)C2=O [Example 88, (3S)-3-(5-{[(3S,4S)-1-[(7-{4-acetyl-4,7-diazaspiro[2.5]octan-7-yl}isoquinolin-3-yl)methyl]-4-(methoxymethyl)pyrrolidin-3-yl]oxy}-1-oxo-2,3-dihydro-1H-isoindol-2-yl)piperidine-2,6-dione]",28.3,1,11,3,9.1,13.1
"COC[C@@H]1CN(Cc2ccc3nc(N4CCN(C(C)=O)C5(CC5)C4)ccc3c2)C[C@H]1Oc1ccc2c(c1)CN([C@H]1CCC(=O)NC1=O)C2=O [Example 89, (3S)-3-(5-{[(3S,4S)-1-[(2-{4-acetyl-4,7-diazaspiro[2.5]octan-7-yl}quinolin-6-yl)methyl]-4-(methoxymethyl)pyrrolidin-3-yl]oxy}-1-oxo-2,3-dihydro-1H-isoindol-2-yl)piperidine-2,6-dione]",30.2,1,9,1,8.4,16.8
"COC[C@@H]1CN(Cc2ccc3nc(N4CCN(C(C)=O)C5(COC5)C4)ccc3c2)C[C@H]1Oc1ccc2c(c1)CN([C@H]1CCC(=O)NC1=O)C2=O [Example 90, (3S)-3-(5-{[(3S,4S)-1-[(2-{5-acetyl-2-oxa-5,8-diazaspiro[3.5]nonan-8-yl}quinolin-6-yl)methyl]-4-(methoxymethyl)pyrrolidin-3-yl]oxy}-1-oxo-2,3-dihydro-1H-isoindol-2-yl)piperidine-2,6-dione]",21.0,2,42,1,6.4,27.2
"COC[C@@H]1CN(Cc2ccc3nc(N4CCN(C(C)=O)C5(CC5)C4)ncc3c2)C[C@H]1Oc1ccc2c(c1)CN([C@H]1CCC(=O)NC1=O)C2=O [Example 94, (3S)-3-(5-{[(3S,4S)-1-[(2-{4-acetyl-4,7-diazaspiro[2.5]octan-7-yl}quinazolin-6-yl)methyl]-4-(methoxymethyl)pyrrolidin-3-yl]oxy}-1-oxo-2,3-dihydro-1H-isoindol-2-yl)piperidine-2,6-dione]",26.4,2,16,1,8.5,16.0
"COC[C@@H]1CN(Cc2ccc3cc(N4CCOCC4)cnc3c2)C[C@H]1Oc1ccc2c(c1)CN([C@H]1CCC(=O)NC1=O)C2=O [Example 102, (3S)-3-(5-{[(3S,4S)-4-(methoxymethyl)-1-{[3-(morpholin-4-yl)quinolin-7-yl]methyl}pyrrolidin-3-yl]oxy}-1-oxo-2,3-dihydro-1H-isoindol-2-yl)piperidine-2,6-dione]",43.7,145,1020,3,49.6,90.7
"COC[C@@H]1CN(Cc2cc(F)c3cc(N4CCOCC4)cnc3c2)C[C@H]1Oc1ccc2c(c1)CN([C@H]1CCC(=O)NC1=O)C2=O [Example 103, (3S)-3-(5-{[(3S,4S)-1-{[5-fluoro-3-(morpholin-4-yl)quinolin-7-yl]methyl}-4-(methoxymethyl)pyrrolidin-3-yl]oxy}-1-oxo-2,3-dihydro-1H-isoindol-2-yl)piperidine-2,6-dione]",32.3,29,5,1,28.5,82.3

# The remaining molecules from weak to strong by EC50 (MKN45 cells), led by results:
293T-LentiX WEE1-ePL Degradation 4 hr YMin (%) (WEE1),EC50 (MKN45 cells) [nM],EC50 (MDA-MB-231 cells) [nM],DC50 (WEE1) [nM],Structure (SMILES),MKN45 Cell Prolif. 120 hr YMin (%) (MKN45 cells),MDA-MB 231 Cell Prolif. 120 hr YMin (%) (MDA-MB-231 cells)
32.2,7,112,11,"COC[C@@H]1CN(Cc2cc3ccc(N4CCN(C(C)=O)C5(COC5)C4)cc3cn2)C[C@H]1Oc1ccc2c(c1)CN([C@H]1CCC(=O)NC1=O)C2=O [Example 87, (3S)-3-(5-{[(3S,4S)-1-[(7-{5-acetyl-2-oxa-5,8-diazaspiro[3.5]nonan-8-yl}isoquinolin-3-yl)methyl]-4-(methoxymethyl)pyrrolidin-3-yl]oxy}-1-oxo-2,3-dihydro-1H-isoindol-2-yl)piperidine-2,6-dione]",9.7,31.8
28.5,2,51,3,"COC[C@@H]1CN(Cc2cc(F)c3nc(N4CCN(C(C)=O)C5(COC5)C4)ncc3c2)C[C@H]1Oc1ccc2c(c1)CN([C@H]1CCC(=O)NC1=O)C2=O [Example 86, (S)-3-(5-(((3S,4S)-1-((2-(5-acetyl-2-oxa-5,8-diazaspiro[3.5]nonan-8-yl)-8-fluoroquinazolin-6-yl)methyl)-4-(methoxymethyl)pyrrolidin-3-yl)oxy)-1-oxoisoindolin-2-yl)piperidine-2,6-dione]",16.9,18.4
27.1,2,105,4,"COC[C@@H]1CN(Cc2cc(F)c3nc(C4CCOC(C)(C)C4)ncc3c2)C[C@H]1Oc1ccc2c(c1)CN([C@H]1CCC(=O)NC1=O)C2=O (stereo partly drawn) [Example 91, (3S)-3-(5-{[(3S,4S)-1-{[2-(2,2-dimethyloxan-4-yl)-8-fluoroquinazolin-6-yl]methyl}-4-(methoxymethyl)pyrrolidin-3-yl]oxy}-1-oxo-2,3-dihydro-1H-isoindol-2-yl)piperidine-2,6-dione]",10.5,9.6
30.8,1,83,,"COC[C@@H]1CN(Cc2ccc3nc(C4CCOC(C)(C)C4)ccc3c2)C[C@H]1Oc1ccc2c(c1)CN([C@H]1CCC(=O)NC1=O)C2=O (stereo partly drawn) [Example 84, (3S)-3-(5-{[(3S,4S)-1-{[2-(2,2-dimethyloxan-4-yl)quinolin-6-yl]methyl}-4-(methoxymethyl)pyrrolidin-3-yl]oxy}-1-oxo-2,3-dihydro-1H-isoindol-2-yl)piperidine-2,6-dione]",10.5,21.0
28.7,1,14,1,"COC[C@@H]1CN(Cc2cc(F)c3nc(N4CCN(C(C)=O)C5(CC5)C4)ccc3c2)C[C@H]1Oc1ccc2c(c1)CN([C@H]1CCC(=O)NC1=O)C2=O [Example 92, (3S)-3-(5-{[(3S,4S)-1-[(2-{4-acetyl-4,7-diazaspiro[2.5]octan-7-yl}-8-fluoroquinolin-6-yl)methyl]-4-(methoxymethyl)pyrrolidin-3-yl]oxy}-1-oxo-2,3-dihydro-1H-isoindol-2-yl)piperidine-2,6-dione]",10.9,21.4
21.9,1,69,1,"COC[C@@H]1CN(Cc2cc(F)c3nc(N4CCN(C(C)=O)C5(COC5)C4)ccc3c2)C[C@H]1Oc1ccc2c(c1)CN([C@H]1CCC(=O)NC1=O)C2=O [Example 93, (3S)-3-(5-{[(3S,4S)-1-[(2-{5-acetyl-2-oxa-5,8-diazaspiro[3.5]nonan-8-yl}-8-fluoroquinolin-6-yl)methyl]-4-(methoxymethyl)pyrrolidin-3-yl]oxy}-1-oxo-2,3-dihydro-1H-isoindol-2-yl)piperidine-2,6-dione]",7.9,52.5
